This note sets out measurements from US4616014A, “Triazine derivatives, and pharmaceutical compositions comprising the same” (Fujisawa Pharmaceutical Co., Ltd., priority 1981, dated 1986).

In experiment [1] the test system is platelet aggregation induced by collagen. In words: Inhibition of collagen-induced platelet aggregation in platelet rich plasma (Test Method B). The experiment is classed as cell-based, rabbit. The conditions noted are these: 2 min, collagen (2.5 μg/ml), 37° C., read-out: ID50, Collagen. The method, then: (§1) Platelet rich plasma (PRP) which contains 6.5-7.5×10^8 platelet/ml was prepared from rabbit blood. To the 200 μl of PRP, 5 μl of calcium chloride (1 mM) and 50 μl of pH 7.4 Tris-acetate solution (5 mM) containing 120 mM NaCl and test compound were added successively, and then stirred for 2 min. at 37° C. To the solution 5 μl of adenosine diphosphate (ADP) (2.5 μM) or collagen (2.5 μg/ml) was added as an aggregation inducer. Aggregation was measured by using an aggregometer (NKK HEMA TRACER 1).

Experiment [2] has as its system platelet aggregation induced by adenosine diphosphate (ADP). The experiment can be described thus: Inhibition of ADP-induced platelet aggregation in platelet rich plasma (Test Method B). The experiment is classed as cell-based, rabbit. The conditions noted are these: 2 min, ADP (2.5 μM), 37° C., read-out: ID50, ADP. The method, then: as §1
The subject of a further experiment is mean blood pressure. In words: Antihypertensive test in DOCA/saline hypertensive rats (Test Method A). The experiment is classed as in vivo, male Wister rats. The conditions noted are these: Rattus norvegicus, DOCA hypertensive rats, read-out: Effect Max (mean ratio of maximum decrease of blood pressure); for inhibition in vivo at 1 mg/kg: d: orally; for inhibition in vivo at 0.1 mg/kg: c: orally. The method, then: Five-week old male Wister rats were uninephrectomized under anesthesia. Deoxycorticosterone acetate (DOCA) (30 mg/kg), suspended in peanut oil, was injected subcutaneously twice a week and 1% saline was substituted for the drinking water. Animals with mean blood pressure 150-200 mmHg were used for experiment between 5 and 7 weeks after surgery. The test compounds were administered intraperitonealy or orally. Blood pressure was measured at the femoral artery by means of a pressure transducer and recorded as electrically integrated values of mean arterial pressure.

Where [3] appears, read: Oryctolagus cuniculus, Platelet, pH 7.4, rabbit PRP.
The mark [4] stands for this setting: rabbit PRP, pH 7.4, listed as Ex. 76, 2 min.
Setting [5] is: rabbit PRP, pH 7.4, listed as Ex. 75, 2 min.

Each structure is given as a SMILES string. Where a name gives a salt, the structure may show the parent alone. Read-outs that look alike come from different tables or passages of the source.

Consider `CCCCN1C(=O)CCc2cc(C3=NNC(=O)NC3C)ccc21` (stereo not drawn) [68-(3), 6-(1-Butyl-2-oxo-1,2,3,4-tetrahydroquinolin-6-yl)-5-methyl-4,5-dihydro-1,2,4-triazin-3(2H)-one], for which the values for the IC50 in experiment [1] (setting [3]) and in experiment [2] (setting [3]) were 0.042 µM and 0.14 µM, respectively. For the same molecule, the inhibition in vivo at 1 mg/kg in the experiment with mean blood pressure (po) amounted to 62%.

`CC1N=C(NN)NN=C1c1ccc(Cl)cc1` (stereo not drawn) [Example 25-(4), 6-(4-chlorophenyl)-3-hydrazino-5-methyl-2,5-dihydro-1,2,4-triazine hydrochloride]: the inhibition in vivo at 10 mg/kg in the experiment on mean blood pressure (ip, a: intraperitonealy) is 51.7%; with mean blood pressure (po, b: orally) it was 37.4%.

With `CC1N=C(N2CCCCC2)NN=C1c1ccccc1` (stereo not drawn) [10-(2), 5-Methyl-6-phenyl-3-piperidino-2,5-dihydro-1,2,4-triazine], the inhibition in vivo at 10 mg/kg stood at 46.5% in the experiment with mean blood pressure (ip, a: intraperitonealy) and 50% in the experiment on mean blood pressure (po, b: orally).

As to `CC1N=C(N2CCN(C(=O)c3ccco3)CC2)NN=C1c1ccccc1` (stereo not drawn) [4-(2), 3-[4-(2-Furoyl)-1-piperazinyl]-5-methyl-6-phenyl-2,5-dihydro-1,2,4-triazine], the inhibition in vivo at 10 mg/kg in the experiment on mean blood pressure (ip, a: intraperitonealy) was 48.9%.

For `CC1NC(=O)NN=C1c1ccc2c(c1)CCC(=O)N2` (stereo not drawn) [67-(3), 5-Methyl-6-(2-oxo-1,2,3,4-tetrahydroquinolin-6-yl)-4,5-dihydro-1,2,4-triazin-3(2H)-one], the IC50 in experiment [1] (setting [3]) was found to be 0.018 µM; in experiment [2] (setting [3]), 0.054 µM. In addition, the inhibition in vivo at 0.1 mg/kg in the experiment on mean blood pressure (po) came out at 43%.

Regarding `CC1N=C(N2CCOCC2)NN=C1c1ccccc1` (stereo not drawn) [8-(2), 5-methyl-3-morpholino-6-phenyl-2,5-dihydro-1,2,4-triazine hydrochloride], in the experiment on mean blood pressure (ip, a: intraperitonealy), the inhibition in vivo at 10 mg/kg amounted to 48.9%.

Take `CC1NC(=O)NN=C1c1ccc2c(c1)CCC(=O)N2C` (single isomer, unassigned; (+)) [Example 76, (+)-5-Methyl-6-(1-methyl-2-oxo-1,2,3,4-tetrahydroquinolin-6-yl)-4,5-dihydro-1,2,4-triazin-3(2H)-one]: the IC50 in experiment [1] (setting [4]) amounted to 0.36 µM; in experiment [2] (setting [4]), 1.2 µM. Also, the inhibition in vivo at 1 mg/kg with mean blood pressure (po) was 56%.

On to `CC1NC(=O)NN=C1c1ccc2c(c1)CCC(=O)N2C` (single isomer, unassigned; (-)) [Example 75, (-)-5-methyl-6-(1-methyl-2-oxo-1,2,3,4-tetrahydroquinolin-6-yl)-4,5-dihydro-1,2,4-triazin-3(2H)-one], for which the IC50 was 0.034 µM in experiment [1] (setting [5]) and 0.098 µM in experiment [2] (setting [5]). For the same molecule, in the experiment on mean blood pressure (po), the inhibition in vivo at 0.1 mg/kg is 55%.

With `CC1NC(=O)NN=C1c1ccc(Br)cc1` (stereo not drawn) [Example 32-(3), 37-(2), 6-(4-bromophenyl)-5-methyl-4,5-dihydro-1,2,4-triazin-3(2H)-one], the inhibition in vivo at 10 mg/kg with mean blood pressure (ip, a: intraperitonealy) was determined as 61.8%; in the experiment with mean blood pressure (po, b: orally), 58.3%.

For `CC1NC(=O)NN=C1c1ccccc1` (stereo not drawn) [36-(3), 5-methyl-6-phenyl-4,5-dihydro-1,2,4-triazin-3(2H)-one], the inhibition in vivo at 10 mg/kg in the experiment with mean blood pressure (ip, a: intraperitonealy) was found to be 45.2%.

As for `CC1NC(=O)NN=C1c1ccc2c(c1)CCC(=O)N2C` (stereo not drawn) [Example 49-(3), 77-(2), 5-methyl-6-(1-methyl-2-oxo-1,2,3,4-tetrahydroquinolin-6-yl)-4,5-dihydro-1,2,4-triazin-3(2H)-one], the IC50 in experiment [1] (setting [3]) came to 0.11 µM; in experiment [2] (setting [3]), 0.16 µM. The inhibition in vivo at 0.1 mg/kg in the experiment on mean blood pressure (po) was 43%. Moreover, the inhibition in vivo at 1 mg/kg in the experiment on mean blood pressure (po) was 70%.

As for `CC1N=C(NCCO)NN=C1c1ccccc1` (stereo not drawn) [6-(2), 3-(2-Hydroxyethylamino)-5-methyl-6-phenyl-2,5-dihydro-1,2,4-triazine], the inhibition in vivo at 10 mg/kg in the experiment with mean blood pressure (ip, a: intraperitonealy) was 43.1%.

With `CC1NC(=O)NN=C1c1ccc(Cl)cc1` (stereo not drawn) [39-(2), 6-(4-Chlorophenyl)-5-methyl-4,5-dihydro-1,2,4-triazin-3(2H)-one], the inhibition in vivo at 10 mg/kg in the experiment with mean blood pressure (ip, a: intraperitonealy) worked out at 57.1%; in the experiment with mean blood pressure (po, b: orally), 38.6%.

On to `CC1NC(=O)N(C)N=C1c1ccc2c(c1)CCC(=O)N2C` (stereo not drawn) [Example 71, 2,5-Dimethyl-6-(1-methyl-2-oxo-1,2,3,4-tetrahydroquinolin-6-yl)-4,5-dihydro-1,2,4-triazin-3(2H)-one], for which the IC50 in experiment [1] (setting [3]) stood at 17 µM; in experiment [2] (setting [3]), 9.8 µM.
